Results taken from patent publication US10576049B1, “Composition for improving function of aortic endothelial cell and use thereof” (XI'AN JIAOTONG UNIVERSITY, priority 2018, dated 2020).

Experiments:
Format in all cases: cell-based
[1] = tested on: mitochondrial complex I in human aortic endothelial cells; experiment: Western blot of mitochondrial complex I expression in palmitic acid-treated human aortic endothelial cells; conditions: 500 μM palmitic acid 24 h alone, versus control, HAEC, Western blot (FIG. 2A, 2B)
Experimental: (§1) Human aortic endothelial cells (HAEC) were purchased from Shanghai Baili Biotechnology Co., Ltd. Palmitic acid was purchased from SIGMA Company. The cells were cultured in a constant-temperature, humidified, sterile incubator. The experiments were performed in three experiment groups: I. control; II. 500 μM palmitic acid treatment; and III. composition protecting. In each of the three experiment groups, the cells were respectively cultured at an atmosphere of 95% air and 5% CO2 at 37° C. in wells of a 12-well cell culture plate for the following mRNA level detection, and in wells of a 6-well cell culture plate for the following protein detection. After the cell density of the three experiment groups were all cultured to 40% to 50%, the composition was added to the cells of group III. […] The supernatants were collected, and the proteins therein were quantified by bicinchoninic acid (BCA) assay, and normalized. […] Target proteins were detected by chemiluminescence. Referring to FIG. 1 to FIG. 3, the data obtained in the above-described experiments, for the amount of the mRNA and the proteins, were expressed in the diagrams in form of mean±SEM (SEM is standard error of mean), and the data were analyzed by using One-way ANOVA analysis method with statistical significance p values of * meaning p<0.05, ** meaning p<0.01, *** meaning p<0.001. […]

[2] = tested on: mitochondrial complex III in human aortic endothelial cells; experiment: Western blot of mitochondrial complex III expression in palmitic acid-treated human aortic endothelial cells; conditions: 500 μM palmitic acid 24 h alone, versus control, HAEC, Western blot (FIG. 2A, 2B)
Experimental: as §1

[3] = tested on: interleukin-6 (IL-6) mRNA in human aortic endothelial cells (HAEC); experiment: IL-6 mRNA level detection (RT-PCR) in palmitic acid-induced inflammation of human aortic endothelial cells; conditions: 500 μM palmitic acid 24 h, versus control group, HAEC (FIG. 1)
Experimental: (§2) In each of the three experiment groups, the cells were respectively cultured at an atmosphere of 95% air and 5% CO2 at 37° C. in wells of a 12-well cell culture plate for the following mRNA level detection, and in wells of a 6-well cell culture plate for the following protein detection. After the cell density of the three experiment groups were all cultured to 40% to 50%, the composition was added to the cells of group III. The composition was comprised of the acetic acid, lactic acid, polyoxyethylene castor oil (EL-12), and disodium alkyl polyoxyethylene sulfosuccinate (A-102) in the mass ratio of 1:2.2:1.8:1.5. Different concentrations of the composition were obtained by diluting the composition by adding a solvent having a volume of 20, 100, or 1000 times of the composition. […]
(§3) The detecting of mRNA levels corresponding to interleukin-6 and matrix metalloproteinase-1 was carried out by using reverse transcription RNA and real-time quantitative polymerase chain reaction (PCR), and the specific method is as follows:
(§4) The medium for cell culture in the wells was removed. […] The concentration of the solution was measured by an ultraviolet spectrophotometer. […]

[4] = tested on: matrix metalloproteinase-1 (MMP-1) mRNA in human aortic endothelial cells (HAEC); experiment: MMP-1 mRNA level detection (RT-PCR) in palmitic acid-induced inflammation of human aortic endothelial cells; conditions: 500 μM palmitic acid 24 h, versus control group, HAEC (FIG. 1)
Experimental: as §2, §3, §4

[5] = tested on: FoxO1 protein in human aortic endothelial cells; experiment: Western blot of FoxO1 protein expression in palmitic acid-treated human aortic endothelial cells; conditions: 500 μM palmitic acid 24 h alone, versus control, HAEC
Experimental: as §1

## CCCCCCCCCCCCCCCC(=O)O [palmitic acid]
[1]
  expression of mitochondrial complex I: reducing
[2]
  expression of mitochondrial complex III: reducing
[3]
  increase of mRNA level corresponding to IL-6: about 12 times
[4]
  increase of mRNA level corresponding to MMP-1: about 5 times
[5]
  expression of FoxO1: reducing
